Consider one compound from US20100137314A1, “HARMFUL ORGANISM CONTROL COMPOSITION” (priority 2007, published 2010).

Assay [1] has as its system Bemisia tabaci. Kind of assay: Test Example 2: cabbage leaf disc immersion test, life or death of Bemisia tabaci imagoes after 2 days. Format: in vivo. The settings on record: compound X alone 2000 ppm. As for the experimental part: Ten parts of the compound I-(138) was dissolved in 40 parts of xylene and 40 parts of N,N-dimethylformamide, and thereto was added 10 parts of Sorpol 3005X (manufactured by TOHO Chemical Industry Co., LTD.). The mixture was stirred well to prepare a formulation.
The formulation of the compound X prepared in Test Example 1 was diluted with water to a predetermined concentration (2000 ppm). To the water dilution was added the formulation of the compound I-(138) so that the concentration of the compound I became a predetermined concentration (800 ppm). To the resulting dilution was added 1/5000 by volume of a spreading agent (New Rinou manufactured by Nihon Nohyaku) to prepare a test diluted solution.
Separately, the formulation of the compound I-(138) was diluted with water to a predetermined concentration (800 ppm). To the water dilution was added 1/5000 by volume of a spreading agent (New Rinou manufactured by Nihon Nohyaku) to prepare a test diluted solution. […]
On the other hand, 3 mL of 1% agar was put in a glass cup having an internal diameter of 2.6 cm and a height of 4.5 cm. […] After 2 days, the life or death of the Bemisia tabaci imagoes was determined, and a controlling value was calculated by the above-described equation.

The test system of assay [2] is Bemisia tabaci. Kind of assay: Test Example 1: cabbage leaf disc immersion test, life or death of Bemisia tabaci imagoes after 4 days. Format: in vivo. The settings on record: foliar, 96 h, compound X alone 1000 ppm, cabbage leaf disc immersed 30 seconds, read-out: Pest controlling value (%). As for the experimental part: Ten parts of the compound X was dissolved in 40 parts of xylene and 40 parts of N,N-dimethylformamide, and thereto was added 10 parts of Sorpol 3005X (manufactured by TOHO Chemical Industry Co., LTD.). The mixture was stirred well to prepare a formulation. Separately, 10 parts of any one of the compound I-(5), the compound I-(34), the compound I-(68), the compound I-(70), the compound I-(74), the compound I-(115), the compound I-(117), the compound I-(119), the compound I-(204) and the compound I-(213) was dissolved in 40 parts of xylene and 40 parts of N,N-dimethylformamide, and thereto was added 10 parts of Sorpol 3005X (manufactured by TOHO Chemical Industry Co., LTD.). The mixture was stirred well to prepare a formulation. The formulation of the compound X was diluted with water to a predetermined concentration (1000 ppm). […] After 4 days, the life or death of the Bemisia tabaci imagoes was determined, and a controlling value was calculated by the following equation: […] wherein Cb: the number of insects in a non-treated section before treatment, Cai: the number of insects in a non-treated section on observation, Tb: the number of insects in a treated-section before treatment, Tai: the number of insects in a treated section on observation. […]

Each structure is given as a SMILES string.

As to `CC#CCOc1cc(Cc2ccccc2Cl)ncn1` [compound X, 4-(2-chlorobenzyl)-6-(2-butynyloxy)pyrimidine], in the assay with Bemisia tabaci [1], the “Pest controlling value (%)” value worked out at 26%. Besides, the pest or weed control at 1000 ppm with Bemisia tabaci [2] came out at 25%.
